Data as given in publication PMC2778353, “Toxicity of Xanthene Food Dyes by Inhibition of Human Drug-Metabolizing Enzymes in a Noncompetitive Manner” (Journal of Environmental and Public Health, 2009).
Like-named read-outs stand apart in the source and are kept apart here. Values belong to the compound of their own block, whether it stands above or below them.

Experiments:
UGT2B7 = target: T1, UGT2B7 (Homo sapiens, UniProt P16662); test: Inhibition of UGT2B7 activity (glucuronidation of androsterone), Sf9 cell membrane; assay type: biochemical
T1 construct: purchased Gentest; host or cells: Sf9 cells, baculovirus expression system
T1 sequence (P16662 24-529): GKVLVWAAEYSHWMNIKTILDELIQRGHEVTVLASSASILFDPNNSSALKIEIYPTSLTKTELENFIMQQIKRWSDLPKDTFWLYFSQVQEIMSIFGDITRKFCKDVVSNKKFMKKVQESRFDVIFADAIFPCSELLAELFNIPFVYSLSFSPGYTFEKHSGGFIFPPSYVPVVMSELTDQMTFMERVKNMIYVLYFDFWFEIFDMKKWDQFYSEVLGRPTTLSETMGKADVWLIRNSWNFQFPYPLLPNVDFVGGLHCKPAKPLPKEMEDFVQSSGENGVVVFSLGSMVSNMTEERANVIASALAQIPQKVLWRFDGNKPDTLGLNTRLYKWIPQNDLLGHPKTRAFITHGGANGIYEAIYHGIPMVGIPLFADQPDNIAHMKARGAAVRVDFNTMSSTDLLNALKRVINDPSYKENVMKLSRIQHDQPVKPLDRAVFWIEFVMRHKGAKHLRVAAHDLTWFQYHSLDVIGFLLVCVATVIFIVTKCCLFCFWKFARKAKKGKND
Experimental: (§1) These enzymes were stored at −80°C. Superoxide dismutase (SOD) and catalase are products of Sigma.

UGT1A6 [1] = target: T2, UGT1A6 (Homo sapiens, UniProt P19224); test: Inhibition of UGT1A6 activity (glucuronidation of p-nitrophenol) in pooled human liver microsomes; details: for Difference of UGT1A6 activity between dark and light: 0.3 mM p-NP
T2 sequence (P19224 27-532): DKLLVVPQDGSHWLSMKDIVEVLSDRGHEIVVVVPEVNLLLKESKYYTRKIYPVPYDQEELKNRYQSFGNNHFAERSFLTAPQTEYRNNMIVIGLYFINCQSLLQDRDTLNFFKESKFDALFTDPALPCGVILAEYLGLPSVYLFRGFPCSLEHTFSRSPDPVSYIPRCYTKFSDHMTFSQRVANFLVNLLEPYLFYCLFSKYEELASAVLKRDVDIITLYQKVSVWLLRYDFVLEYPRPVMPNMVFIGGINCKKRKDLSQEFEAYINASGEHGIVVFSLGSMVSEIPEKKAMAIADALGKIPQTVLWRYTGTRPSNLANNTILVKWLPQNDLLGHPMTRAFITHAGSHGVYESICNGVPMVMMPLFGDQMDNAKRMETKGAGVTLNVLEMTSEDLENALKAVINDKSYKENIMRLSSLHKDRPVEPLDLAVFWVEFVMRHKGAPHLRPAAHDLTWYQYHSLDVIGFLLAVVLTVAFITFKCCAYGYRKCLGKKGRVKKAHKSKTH
Experimental: (§2) The enzyme source to measure CYP2A6, CYP3A4, and UGT1A6 activities was pooled human liver microsomes (HLMs), purchased from Gentest (Woburn, MA, USA). […] These enzymes were stored at −80°C.
(§3) The microassay method of UGT activity in this study was carried out according to previous reports [5, 51]. […] In order to investigate the role of reactive oxygen species on the inhibition of UGT1A6 by dyes, we studied the effect of SOD and catalase.
(§4) The inhibition of UGT1A6 activity with p-nitrophenol [5] and of UGT2B7 with androsterone by dyes was studied.

CYP3A4 = target: T3, CYP3A4 (Homo sapiens, UniProt P08684); test: Inhibition of CYP3A4 activity in pooled human liver microsomes (7-benzoyloxy-4-(trifluoromethyl)-coumarin substrate); assay type: biochemical; details: for IC50: pooled human liver microsomes
T3 construct: pooled human liver microsomes (HLMs), purchased from Gentest; tissue Gentest (Woburn, MA, USA); host or cells: pooled human liver microsomes
T3 sequence (P08684 whole entry): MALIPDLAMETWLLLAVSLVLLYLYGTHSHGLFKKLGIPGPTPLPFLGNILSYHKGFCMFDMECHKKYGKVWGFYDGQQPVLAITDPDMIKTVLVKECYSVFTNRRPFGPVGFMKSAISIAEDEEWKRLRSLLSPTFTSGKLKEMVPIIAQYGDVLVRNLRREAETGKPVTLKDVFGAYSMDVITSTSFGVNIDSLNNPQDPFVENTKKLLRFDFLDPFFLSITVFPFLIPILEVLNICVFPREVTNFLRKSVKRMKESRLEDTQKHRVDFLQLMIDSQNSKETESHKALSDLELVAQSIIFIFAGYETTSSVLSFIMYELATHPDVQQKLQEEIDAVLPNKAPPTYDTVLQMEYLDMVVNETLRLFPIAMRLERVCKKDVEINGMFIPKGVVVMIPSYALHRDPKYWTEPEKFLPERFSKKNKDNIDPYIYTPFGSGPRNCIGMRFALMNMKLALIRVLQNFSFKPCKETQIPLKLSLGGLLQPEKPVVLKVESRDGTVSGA
Experimental: as §1
CYP3A4 is a major enzyme among phase I drug-metabolizing enzymes and reacts with half of all drugs. To determine the influence of CYP3A4 activity by food dyes, the color of dyes influencing the fluorometric measurement over 30 μM dye concentration was measured. This background was subtracted from the measurement of color pigments.

P-glycoprotein = P-glycoprotein (Homo sapiens, UniProt P08183); test: biochemical
Chain of P-glycoprotein (P08183 whole entry): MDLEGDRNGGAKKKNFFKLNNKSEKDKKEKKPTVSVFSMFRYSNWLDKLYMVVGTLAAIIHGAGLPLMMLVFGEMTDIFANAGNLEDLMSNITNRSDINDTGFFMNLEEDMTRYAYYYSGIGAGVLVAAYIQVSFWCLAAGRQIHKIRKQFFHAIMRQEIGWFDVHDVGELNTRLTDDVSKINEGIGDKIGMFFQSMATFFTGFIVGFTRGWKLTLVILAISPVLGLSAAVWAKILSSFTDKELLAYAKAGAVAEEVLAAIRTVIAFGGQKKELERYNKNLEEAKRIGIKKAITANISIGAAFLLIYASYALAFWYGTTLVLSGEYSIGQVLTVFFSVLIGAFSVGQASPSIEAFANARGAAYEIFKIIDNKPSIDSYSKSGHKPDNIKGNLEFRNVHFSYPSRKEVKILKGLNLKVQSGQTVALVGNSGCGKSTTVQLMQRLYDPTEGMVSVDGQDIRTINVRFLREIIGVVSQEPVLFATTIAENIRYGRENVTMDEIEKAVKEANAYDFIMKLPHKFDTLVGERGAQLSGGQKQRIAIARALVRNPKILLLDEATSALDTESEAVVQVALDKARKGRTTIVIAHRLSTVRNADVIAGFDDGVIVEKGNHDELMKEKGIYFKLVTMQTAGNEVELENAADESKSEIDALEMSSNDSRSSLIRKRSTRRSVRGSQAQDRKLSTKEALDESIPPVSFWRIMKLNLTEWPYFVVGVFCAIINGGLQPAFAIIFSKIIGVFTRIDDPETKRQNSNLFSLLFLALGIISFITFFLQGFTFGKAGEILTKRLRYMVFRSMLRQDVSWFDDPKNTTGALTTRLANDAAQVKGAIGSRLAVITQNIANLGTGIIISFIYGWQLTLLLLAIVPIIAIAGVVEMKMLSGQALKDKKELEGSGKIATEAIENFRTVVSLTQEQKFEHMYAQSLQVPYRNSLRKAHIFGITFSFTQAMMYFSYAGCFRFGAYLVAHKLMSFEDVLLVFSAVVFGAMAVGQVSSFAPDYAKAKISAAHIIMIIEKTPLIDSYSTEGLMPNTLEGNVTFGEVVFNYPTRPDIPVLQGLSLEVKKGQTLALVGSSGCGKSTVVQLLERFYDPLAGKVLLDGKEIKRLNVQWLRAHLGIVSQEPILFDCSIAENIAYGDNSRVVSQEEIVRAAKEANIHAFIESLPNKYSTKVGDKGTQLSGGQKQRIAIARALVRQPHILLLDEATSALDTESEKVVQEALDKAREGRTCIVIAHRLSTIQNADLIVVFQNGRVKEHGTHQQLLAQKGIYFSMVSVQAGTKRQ
Experimental: as §1

[2] = target: P-glycoprotein (ATPase activity) (Homo sapiens, UniProt P08183); test: in vitro; details: human
Chain of P-glycoprotein (ATPase activity) (P08183 whole entry): as above
Experimental: as §1

UGT1A6 [3] = target: T2, UGT1A6; test: in vitro
Experimental: as §2, §3, §4

[4] = human, pooled human liver microsomes, probe p-nitrophenol
[5] = human, probe 7-benzoyloxy-4-(trifluoromethyl)-coumarin
[6] = read-out: IC50 value P-glycoprotein, ATPase activity of P-gp membrane
[7] = glucuronidation inhibition by RB

Compound: O=C1OC2(c3ccccc31)c1cc(I)c(O)c(I)c1Oc1c2cc(I)c(O)c1I [Erythrosine B (ET), erythrosine]
- Type of inhibition of UGT2B7 (UGT2B7): non-competitive
- Inhibition of UGT2B7 (in words) (UGT2B7; androsterone glucuronidation): inhibited
- IC50 (UGT1A6 [1]): 50 µM
- Inhibition of UGT1A6 activity (in words) (UGT1A6 [1]): greatest inhibition
- Substrate activity for UGT1A6 (UGT1A6 [1]): no substrate activity
- Type of inhibition of UGT1A6 (Lineweaver-Burk plots) (UGT1A6 [1]): non-competitive
- IC50 (UGT1A6 [1]; [4]): 70 µM
- Inhibition of CYP3A4 at 30 μM (CYP3A4; 30 μM dye): completely inhibited
- IC50 (P-glycoprotein): 15.6 µM
- Inhibition of P-gp (in words) (P-glycoprotein): well inhibited

Compound: O=C([O-])C1=NN(c2ccc(S(=O)(=O)[O-])cc2)C(=O)C1N=Nc1ccc(S(=O)(=O)[O-])cc1.[Na+].[Na+].[Na+] (stereo not drawn) [Tartrazine (TT), tartrazine]
- Inhibition of UGT1A6 activity (in words) (UGT1A6 [1]): no inhibition
- IC50 (CYP3A4): > 1000 µM
- IC50 (P-glycoprotein): > 1000 µM

Compound: O=C(O)c1c(Cl)c(Cl)c(Cl)c(Cl)c1-c1c2cc(I)c(=O)c(I)c-2oc2c(I)c(O)c(I)cc12 [Rose Bengal (RB), rose bengal]
- Type of inhibition of UGT2B7 (UGT2B7): non-competitive
- Type of inhibition of UGT1A6 (Lineweaver-Burk plots) (UGT1A6 [1]): non-competitive
- Difference of UGT1A6 activity between dark and light (UGT1A6 [1]; 0.1 mM RB): could not find a significant difference
- Difference of UGT1A6 activity between dark and light (UGT1A6 [1]; 0.01, 0.02, and 0.05 mM RB): significant difference
- UGT1A6 activity in D2O relative to H2O in presence of RB (UGT1A6 [1]; D2O solution versus water): approximately half
- IC50 (UGT1A6 [1]; [4]): 15 µM
- Inhibition of CYP3A4 (in words) (CYP3A4): showed inhibition
- IC50 (CYP3A4; [5]): 21.2 µM
- Inhibition of P-gp (in words) (P-glycoprotein): well inhibited
- IC50 [2]: 11.7 µM

Compound: CNC(=O)c1c(I)c(NC(C)=O)c(I)c(C(=O)O)c1I.CNC[C@H](O)[C@@H](O)[C@H](O)[C@H](O)CO [meglumine iotalamate, reference compound]
- Inhibition of UGT1A6 activity (in words) (UGT1A6 [1]): no inhibition

Compound: O=C(O)c1c(Cl)c(Cl)c(Cl)c(Cl)c1-c1c2cc(Br)c(=O)c(Br)c-2oc2c(Br)c(O)c(Br)cc12 [Phloxine (PL), phloxine]
- Type of inhibition of UGT2B7 (UGT2B7): non-competitive
- Type of inhibition of UGT1A6 (Lineweaver-Burk plots) (UGT1A6 [1]): non-competitive
- Inhibition of CYP3A4 (in words) (CYP3A4): showed inhibition
- IC50 (CYP3A4; [5]): 5.6 µM
- Inhibition of P-gp (in words) (P-glycoprotein): well inhibited
- IC50 [2]: 24.5 µM
- IC50 (UGT1A6 [3]): 40 µM

Compound: O=S(=O)(O)c1cc(S(=O)(=O)O)c2c(N=Nc3ccc(S(=O)(=O)O)c4ccccc34)c(O)ccc2c1 [New coccine (NC), new coccine]
- IC50 (UGT1A6 [1]; read-out: IC50 value UGT1A6, pooled human liver microsomes, p-nitrophenol glucuronidation): > 1000 µM
- IC50 (CYP3A4): > 1000 µM
- IC50 (P-glycoprotein; [6]): > 1000 µM

Compound: COc1cc(S(=O)(=O)[O-])c(C)cc1N=Nc1c(O)ccc2cc(S(=O)(=O)[O-])ccc12.[Na+].[Na+] [Allura red (AL), allura red]
- Inhibition of UGT1A6 activity (in words) (UGT1A6 [1]): insignificant inhibition
- IC50 (CYP3A4): > 1000 µM
- IC50 (P-glycoprotein; [6]): > 1000 µM

Compound: CCN(Cc1cccc(S(=O)(=O)[O-])c1)c1ccc(C(=C2C=CC(=[N+](CC)Cc3cccc(S(=O)(=O)[O-])c3)C=C2)c2ccccc2S(=O)(=O)[O-])cc1.[Na+].[Na+] [Brilliant blue FCF (BB), brilliant blue FCF]
- Inhibition of UGT1A6 activity (in words) (UGT1A6 [1]): insignificant inhibition
- IC50 (CYP3A4): > 1000 µM
- IC50 (P-glycoprotein): > 1000 µM

Compound: O=S(=O)([O-])c1ccc(N=Nc2c(O)ccc3cc(S(=O)(=O)[O-])ccc23)cc1.[Na+].[Na+] [Sunset yellow FCF (SY), sunset yellow FCF]
- Inhibition of UGT1A6 activity (in words) (UGT1A6 [1]): no inhibition
- IC50 (CYP3A4): > 1000 µM
- IC50 (P-glycoprotein; [6]): > 1000 µM

Compound: [N-]=[N+]=[N-].[Na+] [NaN3, reference compound]
- Prevention of RB inhibition of UGT1A6 by 1O2 quencher (UGT1A6 [1]): significantly prevented
- Inhibition of glucuronidation of p-NP by UGT1A6 by quencher itself (UGT1A6 [1]; 1 to 20 mM): no inhibition

Compound: N[C@@H](Cc1c[nH]cn1)C(=O)O [histidine, reference compound]
- Inhibition of glucuronidation of p-NP by UGT1A6 by quencher itself (UGT1A6 [1]; 1 to 20 mM): no inhibition
- Prevention of RB inhibition of UGT1A6 by 1O2 quencher (UGT1A6 [1]; [7]): significantly prevented

Second part, the compound after the results:

- Prevention of ET inhibition of UGT1A6 (UGT1A6 [1]; added to the mixture of UGT1A6 inhibition by ET): no prevention
Compound: catalase

- IC50 (UGT1A6 [1]; [4]): 70 µM
Compound: O=C(O)c1cc(N=C=S)ccc1-c1c2cc(Br)c(=O)c(Br)c-2oc2c(Br)c(O)c(Br)cc12 [Dye E5ic, Eosin-5-isothiocyanate, reference compound]

- Inhibition of UGT1A6 activity (in words) (UGT1A6 [1]): no inhibition
Compound: CC(=O)N(CC(O)CN(C(C)=O)c1c(I)c(C(=O)NCC(O)CO)c(I)c(C(=O)NCC(O)CO)c1I)c1c(I)c(C(=O)NCC(O)CO)c(I)c(C(=O)NCC(O)CO)c1I (stereo not drawn) [iodixanol, reference compound]

- Inhibition of UGT1A6 activity (in words) (UGT1A6 [1]): no inhibition
- IC50 (CYP3A4): > 1000 µM
- IC50 (P-glycoprotein): > 1000 µM
Compound: O=C1/C(=C2\Nc3ccc(S(=O)(=O)[O-])cc3C2=O)Nc2ccc(S(=O)(=O)[O-])cc21.[Na+].[Na+] [Indigo carmine (ID), indigo carmine]

- Inhibition of UGT1A6 activity (in words) (UGT1A6 [1]): no inhibition
Compound: CC(=O)Nc1c(I)c(NC(C)=O)c(I)c(C(=O)[O-])c1I.[Na+] [sodium diatrizoate, reference compound]

- Inhibition of UGT1A6 activity (in words) (UGT1A6 [1]): did not inhibit
- IC50 (UGT1A6 [1]; [4]): > 1000 µM
Compound: O=C(O)c1ccccc1-c1c2ccc(=O)cc-2oc2cc(O)ccc12 [Uranine, reference compound]

- Inhibition of UGT1A6 activity (in words) (UGT1A6 [1]): insignificant inhibition
- Inhibition of CYP3A4 (in words) (CYP3A4): noninhibition
- IC50 (CYP3A4): > 1000 µM
- IC50 (P-glycoprotein): > 1000 µM
Compound: O=S(=O)([O-])c1ccc2c(N=Nc3ccc(S(=O)(=O)[O-])c4ccccc34)c(O)c(S(=O)(=O)[O-])cc2c1.[Na+].[Na+].[Na+] [Amaranth (AM), amaranth]

- IC50 (UGT1A6 [1]): > 1000 µM
- Inhibition of UGT1A6 activity (in words) (UGT1A6 [1]): did not inhibit
Compound: CCN(CC)c1ccc2c(-c3ccccc3C(=O)O)c3ccc(=[N+](CC)CC)cc-3oc2c1 [rhodamine, reference compound]

- Inhibition of glucuronidation of p-NP by UGT1A6 by quencher itself (UGT1A6 [1]; 0.2–0.5 mM): no inhibition
- Prevention of RB inhibition of UGT1A6 by 1O2 quencher (UGT1A6 [1]; [7]): did not
Compound: CC1=C(/C=C/C(C)=C/C=C/C(C)=C/C=C/C=C(C)/C=C/C=C(C)/C=C/C2=C(C)CCCC2(C)C)C(C)(C)CCC1 [β-carotene, reference compound]

- IC50 (UGT1A6 [1]): > 1000 µM
- Inhibition of UGT1A6 activity (in words) (UGT1A6 [1]): did not inhibit
Compound: c1ccc2c(c1)Cc1ccccc1O2 [Xanthene]
